Laboratory results taken from ChEMBL document CHEMBL3588780, “Quinolyl analogues of norlobelane: novel potent inhibitors of [(3)H]dihydrotetrabenazine binding and [(3)H]dopamine uptake at the vesicular monoamine transporter-2” (Bioorg Med Chem Lett, 2015).

Key:
[1] = target: Synaptic vesicular amine transporter (Rattus norvegicus) (UniProt Q01827); assay: Ratio of Ki for displacement of [3H]DTBZ from VMAT2 in rat whole brain to Ki for inhibition of VMAT2-mediated [3H]DA uptake in rat brain synaptic vesicles; type: tissue-based
[2] = target: Synaptic vesicular amine transporter (Rattus norvegicus) (UniProt Q01827); assay: Displacement of [3H]DTBZ from VMAT2 in rat whole brain relative to quinlobelane
[3] = target: T1, Synaptic vesicular amine transporter (Rattus norvegicus, UniProt Q01827); assay: Displacement of [3H]DTBZ from VMAT2 in rat whole brain by liquid scintillation spectrometry
[4] = target: T1, Synaptic vesicular amine transporter; assay: Inhibition of VMAT2-mediated [3H]DA uptake in rat brain synaptic vesicles by liquid scintillation spectrometry; type: tissue-based

T1 sequence (Q01827 whole entry): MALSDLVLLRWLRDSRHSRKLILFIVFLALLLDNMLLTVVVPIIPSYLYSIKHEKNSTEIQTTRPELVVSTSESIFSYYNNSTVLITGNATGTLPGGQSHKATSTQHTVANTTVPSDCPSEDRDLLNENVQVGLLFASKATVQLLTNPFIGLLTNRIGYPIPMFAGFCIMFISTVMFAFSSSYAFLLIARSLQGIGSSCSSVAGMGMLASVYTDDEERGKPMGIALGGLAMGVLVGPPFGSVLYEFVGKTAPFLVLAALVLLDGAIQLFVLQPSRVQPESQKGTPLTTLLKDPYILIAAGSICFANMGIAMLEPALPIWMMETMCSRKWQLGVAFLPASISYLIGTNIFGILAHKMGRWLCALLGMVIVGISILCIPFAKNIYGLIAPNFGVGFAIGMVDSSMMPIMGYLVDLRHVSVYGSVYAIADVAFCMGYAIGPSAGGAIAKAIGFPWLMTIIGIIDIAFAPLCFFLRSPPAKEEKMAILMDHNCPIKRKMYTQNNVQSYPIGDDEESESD
Synaptic vesicular amine transporter (Rattus norvegicus), sequence (Q01827 whole entry): as above

Row | Ratio Ki [1] | Ratio Ki [2] | Ki [3] | Ki [4] | Structure (SMILES)
1 | 3 | 9 | 293 nM | 57 nM | c1ccc2nc(CC[C@H]3CCC[C@@H](CCc4ccc5ccccc5n4)N3)ccc2c1
2 |  |  | 178 nM | 42 nM | c1ccc2c(CC[C@H]3CCC[C@@H](CCc4ccnc5ccccc45)N3)ccnc2c1
3 | 3 | 4 | 627 nM | 240 nM | OC[C@H](O)CN1[C@@H](CCc2ccc3ccccc3n2)CCC[C@H]1CCc1ccc2ccccc2n1

Row | Structure (SMILES) | Ratio Ki [1] | Ratio Ki [2] | Ki [3] | Ki [4]
4 | c1cnc2ccc(CC[C@H]3CCC[C@@H](CCc4ccc5ncccc5c4)N3)cc2c1 | 3 | 4 | 647 nM | 42 nM
